{"source": "ChEMBL document CHEMBL1201862", "about": "“PubChem BioAssay data set” (2004)", "key": {"[1]": {"experiment": "HEK-293T viability loss, compound-treated – cell-based, uHTS hits, cytotoxicity control for B/T-cell NF-kB inhibitor project, dose response (AID 489019);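 also: IC50 reflects cytotoxicity as loss of cell viability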", "assay_type": "functional"}, "[2]": {"system": "Jurkat", "experiment": "blockers of NF-kB activation in T cells – Jurkat, luciferase reporter, luminescence, B- and T-cell, dose response (AID 489004);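 also: NF-kB luciferase reporter Jurkat cells stimulated with PMA plus ionomycin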", "assay_type": "functional, cell-based", "settings": "Homo sapiens"}, "[3]": {"target": "T1, Carboxy-terminal domain RNA polymerase II polypeptide A small phosphatase 1 (Homo sapiens, UniProt Q9GZU7)", "T1 sequence (Q9GZU7 whole entry)": "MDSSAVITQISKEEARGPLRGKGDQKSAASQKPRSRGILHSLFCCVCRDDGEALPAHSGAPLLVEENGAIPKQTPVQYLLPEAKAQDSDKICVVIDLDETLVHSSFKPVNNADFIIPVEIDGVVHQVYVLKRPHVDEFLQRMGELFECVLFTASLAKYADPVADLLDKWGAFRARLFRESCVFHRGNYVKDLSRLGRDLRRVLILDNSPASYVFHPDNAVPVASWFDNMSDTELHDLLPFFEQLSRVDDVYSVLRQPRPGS", "experiment": "CTDSP1 inhibitors, concentration-response, biochemical, absorbance readout, ultra-high-throughput screen actives (AID 540297)", "assay_type": "functional"}, "[4]": {"target": "T2, SUMO-activating enzyme (Homo sapiens, UniProt Q9UBT2)", "T2 sequence (Q9UBE0 whole entry)": "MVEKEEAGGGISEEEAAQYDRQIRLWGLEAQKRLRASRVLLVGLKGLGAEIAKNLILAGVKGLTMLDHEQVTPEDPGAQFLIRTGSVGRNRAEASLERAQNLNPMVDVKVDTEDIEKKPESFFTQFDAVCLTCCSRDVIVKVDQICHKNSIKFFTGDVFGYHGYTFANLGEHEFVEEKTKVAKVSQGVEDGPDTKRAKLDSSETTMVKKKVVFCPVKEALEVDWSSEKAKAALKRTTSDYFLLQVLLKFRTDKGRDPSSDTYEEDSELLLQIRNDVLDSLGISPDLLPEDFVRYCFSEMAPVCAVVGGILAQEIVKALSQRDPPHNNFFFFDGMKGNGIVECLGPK", "T2 sequence (Q9UBT2 whole entry)": "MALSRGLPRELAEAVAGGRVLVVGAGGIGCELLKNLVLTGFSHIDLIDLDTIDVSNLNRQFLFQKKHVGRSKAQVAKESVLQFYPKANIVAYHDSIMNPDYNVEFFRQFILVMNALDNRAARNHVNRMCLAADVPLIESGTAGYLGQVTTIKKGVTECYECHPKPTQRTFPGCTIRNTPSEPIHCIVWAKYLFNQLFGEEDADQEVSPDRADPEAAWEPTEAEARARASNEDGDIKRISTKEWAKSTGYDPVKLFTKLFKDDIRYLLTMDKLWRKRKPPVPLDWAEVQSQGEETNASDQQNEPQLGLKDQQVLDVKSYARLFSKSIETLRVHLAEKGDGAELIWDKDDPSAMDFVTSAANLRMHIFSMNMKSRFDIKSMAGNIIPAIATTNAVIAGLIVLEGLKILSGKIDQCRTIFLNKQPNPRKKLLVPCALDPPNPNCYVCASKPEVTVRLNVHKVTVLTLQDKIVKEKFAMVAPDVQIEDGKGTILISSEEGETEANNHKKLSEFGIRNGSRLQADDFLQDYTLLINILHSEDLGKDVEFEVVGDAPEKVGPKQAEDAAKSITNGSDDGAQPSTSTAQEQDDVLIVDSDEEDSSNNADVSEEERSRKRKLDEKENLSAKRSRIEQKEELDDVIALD", "experiment": "blockers of SAE1/SAE2–UBC9 SUMO transfer – biochemical, HTRF, uHTS, primary screen (AID 2006)", "assay_type": "protein-complex assay"}, "[5]": {"target": "SUMO E1/E2 (Homo sapiens, UniProt P63279+Q9UBE0+Q9UBT2)", "sequence (Q9UBE0 whole entry)": "as the sequence (Q9UBE0 whole entry) above", "sequence (Q9UBT2 whole entry)": "as the sequence (Q9UBT2 whole entry) above", "sequence (P63279 whole entry)": "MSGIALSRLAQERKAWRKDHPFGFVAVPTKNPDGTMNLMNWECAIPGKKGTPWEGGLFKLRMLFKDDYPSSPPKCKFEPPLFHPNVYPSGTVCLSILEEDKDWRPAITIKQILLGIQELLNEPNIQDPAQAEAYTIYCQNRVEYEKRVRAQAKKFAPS", "experiment": "SAR analysis of SUMOylation using HTRF in an in-Vitro dose response assay. [Related pubchem assays (depositor defined):AID2006, AID2011, AID2018, AID2069, AID2658]", "assay_type": "functional"}, "[6]": {"target": "T2, SUMO-activating enzyme", "experiment": "blockers of UBC9-mediated SUMO conjugation – biochemical, AlphaScreen, SUMOylation inhibitor project, confirmation (AID 2018)", "assay_type": "functional"}, "[7]": {"target": "T3, Hexokinase HKDC1 (Homo sapiens, UniProt Q2TB90)", "T3 sequence (Q2TB90 whole entry)": "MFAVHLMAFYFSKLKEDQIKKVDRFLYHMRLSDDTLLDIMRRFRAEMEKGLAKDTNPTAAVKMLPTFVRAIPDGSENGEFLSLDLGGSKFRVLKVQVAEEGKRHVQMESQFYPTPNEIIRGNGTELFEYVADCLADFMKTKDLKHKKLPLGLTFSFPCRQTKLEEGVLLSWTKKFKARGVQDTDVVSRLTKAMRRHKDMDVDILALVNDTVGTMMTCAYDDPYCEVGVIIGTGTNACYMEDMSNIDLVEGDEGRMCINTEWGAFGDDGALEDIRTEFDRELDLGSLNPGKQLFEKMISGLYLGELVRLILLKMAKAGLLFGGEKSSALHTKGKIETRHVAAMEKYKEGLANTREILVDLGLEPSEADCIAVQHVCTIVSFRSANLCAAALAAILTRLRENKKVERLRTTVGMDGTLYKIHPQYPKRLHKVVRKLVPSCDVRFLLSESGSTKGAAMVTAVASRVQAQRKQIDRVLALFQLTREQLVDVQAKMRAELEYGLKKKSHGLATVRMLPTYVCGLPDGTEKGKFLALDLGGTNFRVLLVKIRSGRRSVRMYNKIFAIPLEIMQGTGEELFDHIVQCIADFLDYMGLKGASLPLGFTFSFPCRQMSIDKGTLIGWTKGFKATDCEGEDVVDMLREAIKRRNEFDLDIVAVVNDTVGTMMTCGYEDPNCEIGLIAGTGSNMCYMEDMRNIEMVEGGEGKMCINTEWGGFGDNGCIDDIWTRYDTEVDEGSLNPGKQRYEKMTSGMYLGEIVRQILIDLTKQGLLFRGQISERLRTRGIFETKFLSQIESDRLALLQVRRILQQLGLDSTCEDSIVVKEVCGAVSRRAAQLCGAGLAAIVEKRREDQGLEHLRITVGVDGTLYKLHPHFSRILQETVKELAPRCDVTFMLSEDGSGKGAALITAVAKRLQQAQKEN", "experiment": "inhibition of HKDC1 glucose phosphorylation – biochemical, W721R variant, dose response (AID 504729)", "assay_type": "functional"}, "[8]": {"experiment": "cells", "assay_type": "functional, cell-based"}, "[9]": {"target": "T4, Replicative DNA helicase DnaB (Mycobacterium tuberculosis, UniProt P9WMR3)", "T4 sequence (P9WMR3 whole entry)": "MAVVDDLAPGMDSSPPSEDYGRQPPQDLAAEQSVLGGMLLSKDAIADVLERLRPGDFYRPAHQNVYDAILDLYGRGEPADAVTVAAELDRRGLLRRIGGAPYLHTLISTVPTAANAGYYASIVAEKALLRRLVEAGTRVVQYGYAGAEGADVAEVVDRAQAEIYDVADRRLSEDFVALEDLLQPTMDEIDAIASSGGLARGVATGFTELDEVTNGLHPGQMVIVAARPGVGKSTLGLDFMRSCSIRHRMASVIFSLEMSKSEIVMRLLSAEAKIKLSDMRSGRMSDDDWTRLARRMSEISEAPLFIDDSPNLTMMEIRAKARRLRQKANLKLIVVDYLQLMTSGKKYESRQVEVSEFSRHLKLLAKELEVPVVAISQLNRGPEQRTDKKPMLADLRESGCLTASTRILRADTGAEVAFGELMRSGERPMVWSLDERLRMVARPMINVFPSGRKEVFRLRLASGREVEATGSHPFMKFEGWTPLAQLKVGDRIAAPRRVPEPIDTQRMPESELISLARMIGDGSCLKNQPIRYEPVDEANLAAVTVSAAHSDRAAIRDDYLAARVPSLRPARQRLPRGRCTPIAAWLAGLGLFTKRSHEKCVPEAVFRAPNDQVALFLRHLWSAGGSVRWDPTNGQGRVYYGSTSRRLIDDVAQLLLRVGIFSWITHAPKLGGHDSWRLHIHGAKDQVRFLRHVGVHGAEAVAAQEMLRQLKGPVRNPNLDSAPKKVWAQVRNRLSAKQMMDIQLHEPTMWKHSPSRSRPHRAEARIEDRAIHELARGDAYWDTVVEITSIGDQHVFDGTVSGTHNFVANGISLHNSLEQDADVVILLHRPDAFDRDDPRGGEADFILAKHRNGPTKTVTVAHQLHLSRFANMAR", "experiment": "DnaB intein splicing inhibitors, dose response, biochemical, cell-free fluorescence (AID 449749)", "assay_type": "functional"}, "[10]": {"system": "HEK293", "experiment": "cells", "settings": "Homo sapiens"}, "[11]": {"target": "T5, Protein RecA (Mycobacterium tuberculosis, UniProt P9WHJ3)", "T5 sequence (P9WHJ3 whole entry)": "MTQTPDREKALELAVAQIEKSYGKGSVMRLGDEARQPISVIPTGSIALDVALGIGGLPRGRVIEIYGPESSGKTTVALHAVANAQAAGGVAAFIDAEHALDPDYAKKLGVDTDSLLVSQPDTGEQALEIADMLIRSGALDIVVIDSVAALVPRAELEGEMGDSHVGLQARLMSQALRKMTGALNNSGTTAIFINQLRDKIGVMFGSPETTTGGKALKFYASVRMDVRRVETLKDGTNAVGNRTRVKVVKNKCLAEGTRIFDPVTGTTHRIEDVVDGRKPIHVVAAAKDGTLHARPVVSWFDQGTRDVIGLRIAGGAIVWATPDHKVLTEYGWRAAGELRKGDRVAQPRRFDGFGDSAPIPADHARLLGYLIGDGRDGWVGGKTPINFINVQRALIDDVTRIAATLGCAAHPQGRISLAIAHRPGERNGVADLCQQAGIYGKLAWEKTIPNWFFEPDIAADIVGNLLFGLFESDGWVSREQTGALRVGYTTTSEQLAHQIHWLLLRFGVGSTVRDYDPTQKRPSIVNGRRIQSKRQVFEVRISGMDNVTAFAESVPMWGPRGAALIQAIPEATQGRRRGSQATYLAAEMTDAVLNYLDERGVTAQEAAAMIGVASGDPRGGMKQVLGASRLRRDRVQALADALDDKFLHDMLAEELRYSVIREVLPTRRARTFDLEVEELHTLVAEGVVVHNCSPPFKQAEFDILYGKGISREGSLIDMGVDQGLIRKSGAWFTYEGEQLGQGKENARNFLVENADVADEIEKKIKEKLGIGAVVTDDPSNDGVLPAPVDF", "experiment": "Fluorescence Cell-Free Homogeneous Dose Retest to Identify Inhibitors of RecA-Intein Splicing Activity. [Related pubchem assays (depositor defined):AID2097, AID2223, AID489010, AID492950]", "assay_type": "functional"}, "[12]": {"target": "T6, Microphthalmia-associated transcription factor (Homo sapiens, UniProt O75030)", "T6 sequence (O75030 whole entry)": "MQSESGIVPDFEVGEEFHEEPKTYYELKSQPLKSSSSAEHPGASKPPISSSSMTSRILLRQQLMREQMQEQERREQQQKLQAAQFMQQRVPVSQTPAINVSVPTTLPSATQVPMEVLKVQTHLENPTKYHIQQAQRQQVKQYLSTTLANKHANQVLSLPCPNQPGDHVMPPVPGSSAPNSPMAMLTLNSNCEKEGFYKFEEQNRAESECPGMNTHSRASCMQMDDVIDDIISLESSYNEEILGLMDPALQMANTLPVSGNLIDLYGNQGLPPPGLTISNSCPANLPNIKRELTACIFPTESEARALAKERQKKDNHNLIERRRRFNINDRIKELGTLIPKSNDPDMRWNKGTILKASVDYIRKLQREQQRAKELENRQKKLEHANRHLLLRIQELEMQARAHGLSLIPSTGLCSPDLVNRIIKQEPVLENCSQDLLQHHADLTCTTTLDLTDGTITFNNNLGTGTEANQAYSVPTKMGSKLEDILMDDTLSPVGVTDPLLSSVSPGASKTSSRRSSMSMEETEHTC", "experiment": "reducers of TRPM1 reporter luminescence, concentration series – cell-based, SK-MEL-5, cherry-picked, set 3, MITF inhibitor project, dose response (AID 493073);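 also: SK-MEL-5 melanoma cells with luciferase driven by the MITF target TRPM1 promoter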", "assay_type": "functional"}, "[13]": {"system": "HEK293", "experiment": "cells", "settings": "Homo sapiens", "remark": "listed apart in the source"}, "[14]": {"experiment": "cells", "assay_type": "functional, cell-based", "remark": "listed apart in the source"}, "[15]": {"target": "Lysine-specific demethylase 4C (Homo sapiens, UniProt Q9H3R0)", "sequence (Q9H3R0 whole entry)": "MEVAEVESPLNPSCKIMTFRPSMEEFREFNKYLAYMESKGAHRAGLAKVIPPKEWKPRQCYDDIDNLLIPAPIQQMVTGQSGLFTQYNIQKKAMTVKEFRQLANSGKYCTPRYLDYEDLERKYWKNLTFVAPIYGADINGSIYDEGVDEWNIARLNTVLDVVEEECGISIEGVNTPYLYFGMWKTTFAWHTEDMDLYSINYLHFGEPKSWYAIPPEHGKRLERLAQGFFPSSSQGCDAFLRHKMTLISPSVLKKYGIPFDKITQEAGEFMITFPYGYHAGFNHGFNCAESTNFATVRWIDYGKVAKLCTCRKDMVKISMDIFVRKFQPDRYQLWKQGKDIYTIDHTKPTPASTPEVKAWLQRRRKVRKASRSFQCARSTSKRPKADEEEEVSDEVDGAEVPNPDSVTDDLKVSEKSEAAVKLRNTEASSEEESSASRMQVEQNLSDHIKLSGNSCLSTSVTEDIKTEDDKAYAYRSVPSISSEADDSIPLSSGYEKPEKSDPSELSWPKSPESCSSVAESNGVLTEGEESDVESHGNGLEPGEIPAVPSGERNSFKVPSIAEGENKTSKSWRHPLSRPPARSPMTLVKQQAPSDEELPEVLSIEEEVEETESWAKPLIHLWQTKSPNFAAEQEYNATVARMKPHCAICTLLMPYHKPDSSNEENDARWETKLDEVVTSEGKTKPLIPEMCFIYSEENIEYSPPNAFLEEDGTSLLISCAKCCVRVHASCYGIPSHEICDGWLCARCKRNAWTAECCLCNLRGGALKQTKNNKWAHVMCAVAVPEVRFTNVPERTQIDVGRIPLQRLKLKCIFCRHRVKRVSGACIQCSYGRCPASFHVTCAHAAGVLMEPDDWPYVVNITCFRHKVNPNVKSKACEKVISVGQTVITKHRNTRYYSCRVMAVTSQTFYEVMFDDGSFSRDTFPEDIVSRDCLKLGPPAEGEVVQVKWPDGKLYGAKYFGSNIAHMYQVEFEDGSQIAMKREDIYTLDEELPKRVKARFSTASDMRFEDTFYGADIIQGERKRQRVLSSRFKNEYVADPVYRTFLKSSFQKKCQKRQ", "experiment": "inhibition of JMJD2C H3K9me3 demethylation – biochemical, DELFIA europium, cherry-picked samples, dose response (AID 488835)", "assay_type": "functional"}, "[16]": {"experiment": "Counterscreen for activators of the function of SWI/SNF related, matrix associated, actin dependent regulator of chromatin, subfamily a, member 2 (SMARCA2, BRM): Luminescence-based cell-based high throughput dose response assay to identify non-selective compounds using the VP16 reporter assay.", "assay_type": "functional"}, "[17]": {"target": "SWI/SNF-related matrix-associated actin-dependent regulator of chromatin subfamily A member 2 (Homo sapiens, UniProt P51531)", "sequence (P51531 whole entry)": "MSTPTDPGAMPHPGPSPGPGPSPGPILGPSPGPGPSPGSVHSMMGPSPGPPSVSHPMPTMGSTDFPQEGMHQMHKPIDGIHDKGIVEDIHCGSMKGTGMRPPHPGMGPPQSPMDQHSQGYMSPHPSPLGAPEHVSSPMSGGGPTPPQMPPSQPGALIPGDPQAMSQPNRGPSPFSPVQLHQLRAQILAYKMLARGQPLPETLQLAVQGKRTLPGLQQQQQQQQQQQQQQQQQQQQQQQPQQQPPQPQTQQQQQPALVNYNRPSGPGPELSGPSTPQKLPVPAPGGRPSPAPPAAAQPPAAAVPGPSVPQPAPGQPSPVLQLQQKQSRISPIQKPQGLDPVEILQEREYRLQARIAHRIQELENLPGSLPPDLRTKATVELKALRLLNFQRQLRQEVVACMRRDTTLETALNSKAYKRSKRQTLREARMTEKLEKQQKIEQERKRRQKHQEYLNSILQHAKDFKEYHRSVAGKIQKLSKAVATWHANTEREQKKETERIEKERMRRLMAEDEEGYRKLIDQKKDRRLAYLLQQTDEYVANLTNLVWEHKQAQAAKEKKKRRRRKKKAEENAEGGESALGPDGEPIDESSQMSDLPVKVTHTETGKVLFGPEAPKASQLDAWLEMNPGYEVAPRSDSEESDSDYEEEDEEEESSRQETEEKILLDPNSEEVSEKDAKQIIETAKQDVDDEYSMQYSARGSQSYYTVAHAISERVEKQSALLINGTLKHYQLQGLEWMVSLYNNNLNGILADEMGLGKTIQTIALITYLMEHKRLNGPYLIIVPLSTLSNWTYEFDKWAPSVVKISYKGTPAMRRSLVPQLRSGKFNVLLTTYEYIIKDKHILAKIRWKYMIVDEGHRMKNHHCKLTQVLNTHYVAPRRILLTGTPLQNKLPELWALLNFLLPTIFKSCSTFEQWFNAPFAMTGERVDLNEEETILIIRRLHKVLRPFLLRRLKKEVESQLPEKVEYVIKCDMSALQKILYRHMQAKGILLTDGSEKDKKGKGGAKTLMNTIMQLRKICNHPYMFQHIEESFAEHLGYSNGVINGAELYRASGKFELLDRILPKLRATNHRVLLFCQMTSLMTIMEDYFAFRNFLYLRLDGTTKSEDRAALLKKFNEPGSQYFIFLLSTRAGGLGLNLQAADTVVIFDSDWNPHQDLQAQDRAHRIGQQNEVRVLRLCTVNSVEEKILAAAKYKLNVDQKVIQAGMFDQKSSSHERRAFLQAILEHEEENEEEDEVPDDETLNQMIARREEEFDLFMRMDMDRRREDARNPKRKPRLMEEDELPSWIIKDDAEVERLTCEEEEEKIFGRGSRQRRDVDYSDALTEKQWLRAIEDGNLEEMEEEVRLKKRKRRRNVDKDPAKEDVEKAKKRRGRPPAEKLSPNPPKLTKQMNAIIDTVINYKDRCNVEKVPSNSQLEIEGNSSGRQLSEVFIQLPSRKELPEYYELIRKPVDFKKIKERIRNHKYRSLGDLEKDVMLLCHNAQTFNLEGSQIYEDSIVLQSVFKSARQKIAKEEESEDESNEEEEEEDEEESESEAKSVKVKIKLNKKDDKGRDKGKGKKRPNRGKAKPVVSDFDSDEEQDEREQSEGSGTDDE", "experiment": "Luminescence-based cell-based high throughput dose response assay to identify activators of the function of SWI/SNF related, matrix associated, actin dependent regulator of chromatin, subfamily a, member 2 (SMARCA2, BRM).", "assay_type": "functional"}}, "note": "Active and inactive are the calls of the source."}
{"compound": "CC(C)Cc1cc(C(C)(C)C)ccc1OC(=S)N(C)C", "values": [{"measurement": "IC50", "setting": "[1]", "result": "> 80 µM (inactive)"}, {"measurement": "IC50", "setting": "[2]", "result": "> 80 µM (inactive)"}]}
{"compound": "O=C(N=Nc1c(O)[nH]c2ccc([N+](=O)[O-])cc12)c1ccccc1Cl", "values": [{"measurement": "IC50", "setting": "[3]", "result": "6.44 µM (active)"}, {"measurement": "IC50", "setting": "[4]", "result": "20.4 µM (active)"}, {"measurement": "IC50", "setting": "[5]", "result": "94.4 µM (active)"}, {"measurement": "IC50", "setting": "[6]", "result": "7.02 µM (active)"}]}
{"compound": "COc1ccc(-n2c(C)cc(C(=O)CCl)c2C)cc1", "values": [{"measurement": "IC50", "setting": "[7]", "result": "27 µM (inactive)"}, {"measurement": "EC50", "setting": "[8]", "result": "> 350 µM (not active)"}, {"measurement": "AC50", "setting": "[9]", "result": "22.9 µM (active)"}, {"measurement": "EC50", "setting": "[10]", "result": "> 59.7 µM (inactive)"}, {"measurement": "EC50", "setting": "[11]", "result": "19 µM (active)"}, {"measurement": "AC50", "setting": "[12]", "result": "6.44 µM (active)"}, {"measurement": "EC50", "setting": "[13]", "result": "> 59.7 µM (inactive)"}, {"measurement": "EC50", "setting": "[14]", "result": "> 350 µM (not active)"}]}
{"compound": "O=C1NC(=O)C(C(CC(=O)c2ccccc2)c2ccccc2)C(=O)N1", "note": "(centres undefined)", "values": [{"measurement": "AC50", "setting": "[15]", "result": "7.62 µM (active)"}]}
{"compound": "O=C1C2C3C=CC(C4CC34)C2C(=O)N1/N=C/c1ccc([N+](=O)[O-])o1", "note": "(centres undefined)", "values": [{"measurement": "EC50", "setting": "[10]", "result": "> 59.6 µM (inactive)"}, {"measurement": "EC50", "setting": "[13]", "result": "> 59.6 µM (inactive)"}, {"measurement": "EC50", "setting": "[16]", "result": "> 91.1 µM (inactive)"}, {"measurement": "EC50", "setting": "[17]", "result": "> 91.1 µM (inactive)"}]}
